Data from ChEMBL document CHEMBL1201862, “PubChem BioAssay data set” (2004).
Activity calls are given as the source filed them.

Columns and labels:
Coagulation factor XII = target: T1, Coagulation factor XII (Homo sapiens, UniProt P00748); assay: Factor XIIa Dose Response Confirmation from Single Well HTS. [Related pubchem assays (depositor defined):AID701]; type: functional
T1 sequence (P00748 whole entry): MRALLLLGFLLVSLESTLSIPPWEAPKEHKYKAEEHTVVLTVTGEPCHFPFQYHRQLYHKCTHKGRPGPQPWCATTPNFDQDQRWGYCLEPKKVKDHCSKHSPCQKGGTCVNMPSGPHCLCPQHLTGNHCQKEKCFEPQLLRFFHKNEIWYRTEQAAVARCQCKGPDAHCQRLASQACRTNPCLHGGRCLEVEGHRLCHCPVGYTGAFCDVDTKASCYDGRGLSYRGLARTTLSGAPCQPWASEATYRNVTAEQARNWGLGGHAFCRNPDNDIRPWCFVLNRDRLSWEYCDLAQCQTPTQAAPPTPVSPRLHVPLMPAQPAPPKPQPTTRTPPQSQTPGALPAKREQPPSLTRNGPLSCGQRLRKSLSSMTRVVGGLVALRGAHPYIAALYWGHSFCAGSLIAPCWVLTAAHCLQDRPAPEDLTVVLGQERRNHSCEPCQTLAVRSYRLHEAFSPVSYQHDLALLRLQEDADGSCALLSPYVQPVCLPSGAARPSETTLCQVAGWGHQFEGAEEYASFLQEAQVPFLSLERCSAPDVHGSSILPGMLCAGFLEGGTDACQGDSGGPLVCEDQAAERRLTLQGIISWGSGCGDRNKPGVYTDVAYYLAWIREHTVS

[1] = target: T2, Replicative DNA helicase DnaB (Mycobacterium tuberculosis, UniProt P9WMR3); assay: DnaB intein splicing inhibitors, dose response, biochemical, cell-free fluorescence (AID 449749); type: functional
T2 sequence (P9WMR3 whole entry): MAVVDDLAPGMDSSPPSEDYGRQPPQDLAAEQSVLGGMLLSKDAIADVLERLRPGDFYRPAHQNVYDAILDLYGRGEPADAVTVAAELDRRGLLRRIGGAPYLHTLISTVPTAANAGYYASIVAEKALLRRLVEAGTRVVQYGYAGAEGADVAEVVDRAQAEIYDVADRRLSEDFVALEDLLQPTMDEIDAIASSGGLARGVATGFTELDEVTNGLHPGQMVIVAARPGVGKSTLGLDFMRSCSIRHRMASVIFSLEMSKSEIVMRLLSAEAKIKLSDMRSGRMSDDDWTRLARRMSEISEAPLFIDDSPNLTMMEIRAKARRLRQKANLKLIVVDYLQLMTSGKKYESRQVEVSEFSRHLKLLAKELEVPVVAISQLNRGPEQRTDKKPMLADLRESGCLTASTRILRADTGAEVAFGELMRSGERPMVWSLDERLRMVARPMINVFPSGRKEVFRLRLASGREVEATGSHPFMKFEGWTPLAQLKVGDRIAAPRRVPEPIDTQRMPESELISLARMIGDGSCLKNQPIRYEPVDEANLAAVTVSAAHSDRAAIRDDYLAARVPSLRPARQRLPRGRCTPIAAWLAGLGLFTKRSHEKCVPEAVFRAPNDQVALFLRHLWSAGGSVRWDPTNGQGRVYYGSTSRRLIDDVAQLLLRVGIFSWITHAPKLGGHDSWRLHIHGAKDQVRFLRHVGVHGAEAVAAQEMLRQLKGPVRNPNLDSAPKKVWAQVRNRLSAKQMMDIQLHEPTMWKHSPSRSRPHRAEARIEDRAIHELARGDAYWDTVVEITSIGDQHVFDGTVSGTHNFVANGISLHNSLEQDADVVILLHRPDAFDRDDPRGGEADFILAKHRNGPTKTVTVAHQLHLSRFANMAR

[2] = Intein inhibitors as potential Tuberculosis drugs, a cytotoxicity screen. [Related pubchem assays (depositor defined):AID2221, AID2223, AID434968, AID435010, AID449749, AID449750, AID489010]; type: functional
[3] = cytotoxicity toward NIH3T3 fibroblasts, dose response, counter-screen, cell-based, ATP luminescence, mouse fibroblasts (AID 2010); type: functional;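 note: cells exposed to compound for about 90 hours before reading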
[4] = Luminescence Cell-Based Dose Response HTS to Identify Inhibitors of 5'UTR Stem-Loop Driven Prion Protein mRNA Translation in H4 Neuroglioblastoma Cells. [Related pubchem assays: 1827 (Project Summary), 1813 (Primary HTS)]; type: functional
[5] = microbe, parasite or virus in culture; type: functional; conditions: Mycobacterium tuberculosis
[6] = target: Glucose-6-phosphate 1-dehydrogenase (Homo sapiens, UniProt P11413); assay: human G6PD enzyme inhibitors, dose response, selectivity assay for P. falciparum G6PD inhibitor project, biochemical, fluorescence (AID 504792); type: functional
Chain of Glucose-6-phosphate 1-dehydrogenase (P11413 whole entry, the tested form may be a part): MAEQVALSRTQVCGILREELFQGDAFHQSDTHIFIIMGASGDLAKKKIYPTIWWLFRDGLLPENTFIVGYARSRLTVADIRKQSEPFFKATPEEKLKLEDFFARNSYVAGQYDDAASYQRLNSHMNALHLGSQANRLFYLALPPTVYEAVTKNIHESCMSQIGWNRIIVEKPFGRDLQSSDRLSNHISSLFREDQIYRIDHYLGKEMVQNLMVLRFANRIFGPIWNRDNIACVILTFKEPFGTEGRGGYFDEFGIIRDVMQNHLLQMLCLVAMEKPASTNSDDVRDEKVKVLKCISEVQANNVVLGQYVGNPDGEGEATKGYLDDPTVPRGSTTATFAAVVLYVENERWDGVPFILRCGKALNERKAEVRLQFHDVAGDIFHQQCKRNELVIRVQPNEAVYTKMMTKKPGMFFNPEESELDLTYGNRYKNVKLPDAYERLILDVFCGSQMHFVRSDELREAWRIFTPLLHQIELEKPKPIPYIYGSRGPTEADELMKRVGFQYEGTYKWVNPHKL

[7] = target: Photoreceptor-specific nuclear receptor (Homo sapiens, UniProt Q9Y5X4); type: functional, cell-based;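 note: CHO-S cells with Gal4-NCOR and VP16-NR2E3 two-hybrid luciferase reporter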
Chain of Photoreceptor-specific nuclear receptor (Q9Y5X4 whole entry, the tested form may be a part): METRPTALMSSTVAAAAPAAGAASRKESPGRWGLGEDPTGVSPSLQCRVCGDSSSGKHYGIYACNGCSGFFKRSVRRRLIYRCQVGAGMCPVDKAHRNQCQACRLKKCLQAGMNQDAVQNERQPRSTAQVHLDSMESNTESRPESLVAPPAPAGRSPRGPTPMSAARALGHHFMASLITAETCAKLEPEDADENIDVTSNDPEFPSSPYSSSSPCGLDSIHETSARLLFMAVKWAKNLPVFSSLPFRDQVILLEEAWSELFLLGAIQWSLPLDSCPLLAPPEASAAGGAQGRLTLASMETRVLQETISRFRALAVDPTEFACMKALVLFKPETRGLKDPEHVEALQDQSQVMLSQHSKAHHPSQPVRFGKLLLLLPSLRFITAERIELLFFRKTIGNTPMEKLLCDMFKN

[8] = test system: Streptococcus sp. 'group A'; assay: growth inhibition of control SK(-) GAS strain, dose response, counter-screen for streptokinase expression inhibitor project, luminescence, kanamycin, BacTiterGlo, confirmation (AID 1900); type: functional, organism-based
Streptococcus = assay: Group A Streptococcus viability loss, dose response, counter-screen for streptokinase expression inhibitor project, luminescence, BacTiterGlo (AID 1915); type: functional, organism-based;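 note: potency for reduction of bacterial viability or growth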
Streptokinase A = target: T3, Streptokinase A (Streptococcus pyogenes serotype M1, UniProt P10520); assay: S. pyogenes streptokinase expression inhibitors, potency, dose response, plasminogen activation absorbance, OD405 (AID 1914); type: functional, Streptococcus pyogenes M1 GAS;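 note: secreted streptokinase activity via plasminogen activation per viability signal from cell pellet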
T3 sequence (P10520 whole entry): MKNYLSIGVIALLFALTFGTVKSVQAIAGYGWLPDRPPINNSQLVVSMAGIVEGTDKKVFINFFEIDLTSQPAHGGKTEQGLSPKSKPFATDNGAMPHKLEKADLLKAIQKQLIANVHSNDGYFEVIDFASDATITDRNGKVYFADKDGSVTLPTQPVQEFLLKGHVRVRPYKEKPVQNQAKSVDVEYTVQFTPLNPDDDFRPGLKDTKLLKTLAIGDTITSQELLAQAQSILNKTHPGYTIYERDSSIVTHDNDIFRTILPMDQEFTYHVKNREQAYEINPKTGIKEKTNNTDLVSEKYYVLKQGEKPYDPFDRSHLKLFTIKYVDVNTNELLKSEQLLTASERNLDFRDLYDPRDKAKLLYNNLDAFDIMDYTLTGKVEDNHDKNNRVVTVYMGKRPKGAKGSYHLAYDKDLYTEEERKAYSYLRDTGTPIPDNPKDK

[9] = growth suppression of PTEN-null colon cells, dose response, cell-based, HCT116 PTEN knockout (AID 1047); type: functional;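 note: HCT116 colon tumor cells with PTEN knocked out; cells exposed to compound for 60 hours before readout; potency for loss of cell viability measured by luminescence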
Protein RecA = target: T4, Protein RecA (Mycobacterium tuberculosis, UniProt P9WHJ3); assay: Fluorescence Cell-Free Homogeneous Dose Retest to Identify Inhibitors of RecA-Intein Splicing Activity. [Related pubchem assays (depositor defined):AID2097, AID2223, AID489010, AID492950]; type: functional
T4 sequence (P9WHJ3 whole entry): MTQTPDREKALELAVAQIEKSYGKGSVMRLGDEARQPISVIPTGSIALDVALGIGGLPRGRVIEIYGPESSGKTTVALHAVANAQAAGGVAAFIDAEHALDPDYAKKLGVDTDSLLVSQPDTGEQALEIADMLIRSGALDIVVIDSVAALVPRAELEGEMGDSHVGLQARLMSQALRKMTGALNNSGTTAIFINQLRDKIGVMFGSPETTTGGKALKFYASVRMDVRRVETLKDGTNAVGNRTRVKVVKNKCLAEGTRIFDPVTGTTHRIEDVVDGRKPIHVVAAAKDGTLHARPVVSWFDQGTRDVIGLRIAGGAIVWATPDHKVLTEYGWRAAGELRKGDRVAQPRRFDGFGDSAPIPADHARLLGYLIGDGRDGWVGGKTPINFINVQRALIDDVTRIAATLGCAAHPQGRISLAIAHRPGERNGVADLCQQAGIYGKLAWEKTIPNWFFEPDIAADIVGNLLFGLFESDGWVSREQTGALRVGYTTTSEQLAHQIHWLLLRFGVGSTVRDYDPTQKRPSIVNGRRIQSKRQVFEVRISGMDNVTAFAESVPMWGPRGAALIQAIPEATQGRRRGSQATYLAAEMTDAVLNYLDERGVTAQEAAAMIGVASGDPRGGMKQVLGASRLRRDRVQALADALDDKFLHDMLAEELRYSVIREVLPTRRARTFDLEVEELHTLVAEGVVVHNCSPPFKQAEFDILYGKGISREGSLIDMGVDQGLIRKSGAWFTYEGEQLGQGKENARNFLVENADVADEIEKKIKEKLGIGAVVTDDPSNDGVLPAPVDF

[10] = inhibitors of firefly luciferase expression or activity, dose response, H4 neuroglioma cells, luminescence (AID 1990); type: functional, cell-based
[11] = growth suppression of beta-catenin-knockout colon cells, dose response, cell-based, HCT116, human colon tumor (AID 1045); type: functional;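 note: HCT116 colon tumor cells with beta catenin knocked out; cells exposed to compound for 60 hours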
[12] = inhibitors of intracellular T. cruzi replication, confirmation, NIH3T3 host cells, beta-gal luminescence (AID 2044); type: functional, cell-based;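 note: intracellular parasites grown in NIH/3T3 mouse fibroblasts as host cells; luminescent beta-galactosidase reporter signal from transgenic T. cruzi replicating inside host cells; inhibitors lower the luminescence signal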
[13] = inhibitors of SNCA 5'UTR-driven reporter translation, confirmation, H4 neuroglioma cells, luminescence (AID 1988); type: functional, cell-based
[14] = target: T5, E3 ubiquitin-protein ligase XIAP (Homo sapiens, UniProt P98170); assay: Counter Screen using XIAP-Bir3 for Chemical Antagonists of Bir1/2 domains of IAP-family anti-apoptotic proteins. [Related pubchem assays (depositor defined):AID1018, AID1449, AID1514, AID1638, AID1749, AID1750, AID488957, AID488963]
T5 sequence (P98170 whole entry): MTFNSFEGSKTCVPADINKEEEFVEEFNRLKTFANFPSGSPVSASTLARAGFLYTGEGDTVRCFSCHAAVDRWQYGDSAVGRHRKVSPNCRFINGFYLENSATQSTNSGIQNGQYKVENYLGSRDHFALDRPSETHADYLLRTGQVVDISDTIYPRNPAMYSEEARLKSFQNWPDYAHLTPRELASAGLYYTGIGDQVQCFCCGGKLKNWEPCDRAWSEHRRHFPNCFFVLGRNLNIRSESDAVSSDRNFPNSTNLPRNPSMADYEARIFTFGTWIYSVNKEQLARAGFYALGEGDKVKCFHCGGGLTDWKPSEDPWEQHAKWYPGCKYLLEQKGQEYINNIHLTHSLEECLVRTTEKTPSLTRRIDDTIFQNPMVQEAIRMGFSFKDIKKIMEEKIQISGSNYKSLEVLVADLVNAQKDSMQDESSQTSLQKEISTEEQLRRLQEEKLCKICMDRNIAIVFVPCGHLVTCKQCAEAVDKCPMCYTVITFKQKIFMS

[15] = target: T5, E3 ubiquitin-protein ligase XIAP; assay: XIAP antagonists, biochemical, IAP family, fluorescence polarization (AID 1018); type: functional
[16] = target: Intestinal-type alkaline phosphatase (Mus musculus, UniProt P24822); assay: PubChem AID 488875; type: functional
Chain of Intestinal-type alkaline phosphatase (Mus musculus, UniProt P24822) (P24822 whole entry): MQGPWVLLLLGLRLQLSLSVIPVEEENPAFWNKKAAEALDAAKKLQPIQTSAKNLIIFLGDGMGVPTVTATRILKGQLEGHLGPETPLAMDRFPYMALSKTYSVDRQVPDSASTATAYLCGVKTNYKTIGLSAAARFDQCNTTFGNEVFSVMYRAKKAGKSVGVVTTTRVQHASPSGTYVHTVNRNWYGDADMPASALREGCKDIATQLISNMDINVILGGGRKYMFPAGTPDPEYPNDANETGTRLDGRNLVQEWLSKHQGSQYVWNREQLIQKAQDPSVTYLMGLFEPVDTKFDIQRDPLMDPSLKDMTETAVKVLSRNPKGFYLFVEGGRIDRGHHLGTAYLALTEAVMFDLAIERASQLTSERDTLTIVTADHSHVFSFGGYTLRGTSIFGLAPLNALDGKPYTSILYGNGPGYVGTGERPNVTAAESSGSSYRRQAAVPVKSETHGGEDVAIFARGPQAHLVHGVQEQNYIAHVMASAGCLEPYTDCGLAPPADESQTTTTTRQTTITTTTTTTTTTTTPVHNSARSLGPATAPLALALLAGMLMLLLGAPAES

[17] = target: Alkaline phosphatase, placental type (Homo sapiens, UniProt P05187); assay: PLAP enzyme inhibitors, confirmation, biochemical, luminescence (AID 1512); type: functional
Chain of Alkaline phosphatase, placental type (P05187 whole entry): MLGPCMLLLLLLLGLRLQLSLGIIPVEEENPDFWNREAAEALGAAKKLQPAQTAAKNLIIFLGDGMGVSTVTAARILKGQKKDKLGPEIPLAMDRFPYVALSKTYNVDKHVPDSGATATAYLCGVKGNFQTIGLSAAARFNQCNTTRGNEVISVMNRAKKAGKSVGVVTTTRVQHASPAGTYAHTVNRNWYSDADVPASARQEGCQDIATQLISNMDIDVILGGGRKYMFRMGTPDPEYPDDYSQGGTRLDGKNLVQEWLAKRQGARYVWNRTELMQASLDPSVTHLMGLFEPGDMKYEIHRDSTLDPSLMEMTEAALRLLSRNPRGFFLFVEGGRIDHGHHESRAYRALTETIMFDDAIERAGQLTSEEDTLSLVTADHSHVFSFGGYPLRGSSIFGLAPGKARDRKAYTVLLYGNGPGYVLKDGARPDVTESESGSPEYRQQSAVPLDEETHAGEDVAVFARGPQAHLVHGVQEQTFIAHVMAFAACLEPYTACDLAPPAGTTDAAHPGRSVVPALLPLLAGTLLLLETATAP

[18] = target: T6, Intestinal-type alkaline phosphatase (Homo sapiens, UniProt P09923); assay: human IAP activators, dose response, biochemical, luminescent, uHTS hits, set 2 (AID 488817); type: functional;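 note: potency of activators that raise enzyme activity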
T6 sequence (P09923 whole entry): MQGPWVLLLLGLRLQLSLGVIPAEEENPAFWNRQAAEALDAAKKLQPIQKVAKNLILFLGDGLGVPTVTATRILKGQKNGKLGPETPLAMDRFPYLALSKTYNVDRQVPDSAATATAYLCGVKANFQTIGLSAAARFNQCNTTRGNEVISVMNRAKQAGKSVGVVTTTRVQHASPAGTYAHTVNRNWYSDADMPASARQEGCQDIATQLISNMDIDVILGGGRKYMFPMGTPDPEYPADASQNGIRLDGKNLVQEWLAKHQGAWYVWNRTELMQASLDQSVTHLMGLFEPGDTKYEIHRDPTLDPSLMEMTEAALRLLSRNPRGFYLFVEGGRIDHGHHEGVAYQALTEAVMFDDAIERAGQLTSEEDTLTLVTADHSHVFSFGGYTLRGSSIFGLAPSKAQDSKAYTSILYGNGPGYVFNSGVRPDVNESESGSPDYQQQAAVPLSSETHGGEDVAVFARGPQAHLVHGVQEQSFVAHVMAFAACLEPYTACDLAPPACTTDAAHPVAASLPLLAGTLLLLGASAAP

[19] = target: T6, Intestinal-type alkaline phosphatase; assay: human intestinal alkaline phosphatase activators, dose response, biochemical, luminescence, uHTS hits (AID 463120); type: functional
[20] = target: T7, Runt-related transcription factor 1/Core-binding factor subunit beta (Homo sapiens, UniProt Q01196+Q13951); assay: inhibitors of RUNX1 Runt–CBFb-SMMHC binding, primary screen, biochemical, FRET, Cerulean-Runt, Venus-CBFb-SMMHC, uHTS (AID 1434); type: protein assay;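 note: partner is the CBFb-SMMHC leukemia fusion protein rather than wild-type CBFb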
T7 sequence (Q01196 whole entry, the tested form may be a part): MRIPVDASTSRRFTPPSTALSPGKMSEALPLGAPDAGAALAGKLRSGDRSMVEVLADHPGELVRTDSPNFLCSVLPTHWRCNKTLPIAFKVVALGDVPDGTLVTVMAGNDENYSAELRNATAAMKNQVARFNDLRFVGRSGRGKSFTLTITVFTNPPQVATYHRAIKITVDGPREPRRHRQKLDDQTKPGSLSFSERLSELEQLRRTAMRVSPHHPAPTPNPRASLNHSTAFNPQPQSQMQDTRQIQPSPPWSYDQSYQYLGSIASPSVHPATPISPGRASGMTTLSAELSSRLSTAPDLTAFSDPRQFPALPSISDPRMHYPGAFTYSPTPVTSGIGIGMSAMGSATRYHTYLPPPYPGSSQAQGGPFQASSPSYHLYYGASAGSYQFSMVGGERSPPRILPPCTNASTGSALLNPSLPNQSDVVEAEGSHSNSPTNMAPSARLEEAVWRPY
T7 sequence (Q13951 whole entry, the tested form may be a part): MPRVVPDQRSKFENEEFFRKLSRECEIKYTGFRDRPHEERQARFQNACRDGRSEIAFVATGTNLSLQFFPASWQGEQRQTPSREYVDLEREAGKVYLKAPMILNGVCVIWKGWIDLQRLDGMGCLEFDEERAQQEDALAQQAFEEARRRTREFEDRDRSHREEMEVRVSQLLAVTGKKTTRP

[21] = target: T7, Runt-related transcription factor 1/Core-binding factor subunit beta; assay: inhibitors of RUNX1 Runt–CBFb-SMMHC binding, biochemical, TR-FRET (AID 1438); type: protein assay
[22] = control 3'UTR Renilla luciferase suppression, dose response, counter-screen for Shn3 inhibitor project, cell-based, Clone20-Shn3RL, cherry-picked (AID 624133); type: functional
Integrin alpha-L = Integrin alpha-L (Mus musculus, UniProt P24063); assay: modulators of CD8 T cell-vesicle binding, dose response, powder samples, mouse 2C CD8+ cells (AID 504565); type: functional
Chain of Integrin alpha-L (P24063 whole entry): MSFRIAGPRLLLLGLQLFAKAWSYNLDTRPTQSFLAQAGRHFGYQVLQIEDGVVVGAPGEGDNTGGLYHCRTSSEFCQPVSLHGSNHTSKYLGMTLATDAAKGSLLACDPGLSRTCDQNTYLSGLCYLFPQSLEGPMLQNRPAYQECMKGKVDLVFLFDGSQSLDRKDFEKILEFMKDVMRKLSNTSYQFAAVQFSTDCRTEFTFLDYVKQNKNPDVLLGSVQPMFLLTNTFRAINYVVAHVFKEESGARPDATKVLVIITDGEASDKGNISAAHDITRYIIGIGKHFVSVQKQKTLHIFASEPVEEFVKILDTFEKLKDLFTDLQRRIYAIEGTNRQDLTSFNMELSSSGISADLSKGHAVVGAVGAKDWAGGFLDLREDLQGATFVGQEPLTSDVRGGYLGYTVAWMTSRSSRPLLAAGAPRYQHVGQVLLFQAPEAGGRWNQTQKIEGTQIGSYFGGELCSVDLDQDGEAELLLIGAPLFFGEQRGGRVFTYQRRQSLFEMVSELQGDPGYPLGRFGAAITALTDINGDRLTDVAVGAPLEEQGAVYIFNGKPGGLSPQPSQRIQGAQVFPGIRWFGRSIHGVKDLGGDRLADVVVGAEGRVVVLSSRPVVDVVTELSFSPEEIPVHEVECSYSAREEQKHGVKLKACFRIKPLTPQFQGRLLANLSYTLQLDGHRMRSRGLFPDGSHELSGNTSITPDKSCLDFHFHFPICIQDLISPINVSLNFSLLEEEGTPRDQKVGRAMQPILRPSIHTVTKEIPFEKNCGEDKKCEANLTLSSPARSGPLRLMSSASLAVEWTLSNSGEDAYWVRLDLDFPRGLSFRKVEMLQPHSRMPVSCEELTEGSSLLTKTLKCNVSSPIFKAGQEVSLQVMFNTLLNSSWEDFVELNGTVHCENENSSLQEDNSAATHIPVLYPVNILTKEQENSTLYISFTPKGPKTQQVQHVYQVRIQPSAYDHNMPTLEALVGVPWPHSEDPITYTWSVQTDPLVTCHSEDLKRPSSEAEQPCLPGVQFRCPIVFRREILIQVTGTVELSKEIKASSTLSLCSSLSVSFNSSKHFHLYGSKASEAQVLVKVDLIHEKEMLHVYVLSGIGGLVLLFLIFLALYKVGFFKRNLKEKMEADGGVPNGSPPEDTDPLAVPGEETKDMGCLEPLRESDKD

[23] = Shn3 3'UTR reporter inhibitors, dose response, cell-based, Clone20 osteoblasts, firefly luciferase, cherry-picked (AID 624132); type: functional;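 note: firefly luciferase luminescence from reporter carrying the Shn3 3'UTR in osteoblasts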
T-cell = assay: inhibitors of CD8+ T cell–vesicle binding, dose response, mouse 2C CD8+ T cells, flow cytometry (AID 485284); type: functional
[24] = target: T8, Type-1 angiotensin II receptor (Homo sapiens, UniProt P30556); assay: AT1 receptor agonists, dose response, selectivity assay for APJ receptor agonist project, cell-based, uHTS hits (AID 488865); type: functional;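 note: beta-arrestin recruitment to AT1 measured by enzyme fragment complementation luminescence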
T8 sequence (P30556 whole entry): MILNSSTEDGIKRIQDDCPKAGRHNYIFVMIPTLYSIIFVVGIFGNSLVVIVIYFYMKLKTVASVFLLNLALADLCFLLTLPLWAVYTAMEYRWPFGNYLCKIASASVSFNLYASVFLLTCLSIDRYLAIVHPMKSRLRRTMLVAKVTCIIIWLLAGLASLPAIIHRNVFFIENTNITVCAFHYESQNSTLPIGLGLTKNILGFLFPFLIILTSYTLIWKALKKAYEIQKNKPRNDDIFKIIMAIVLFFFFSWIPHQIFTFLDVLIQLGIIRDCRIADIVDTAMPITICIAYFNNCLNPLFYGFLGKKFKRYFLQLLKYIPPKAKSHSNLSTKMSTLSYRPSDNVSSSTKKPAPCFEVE

## O=C1N=C(c2ccccc2)S/C1=C\c1cccs1
Coagulation factor XII
  IC50: > 50 µM (inactive)

## COc1ccc(C(=O)c2c(C(F)(F)F)oc3c2C(=O)c2ccccc2C3=O)cc1OC
[1]
  AC50: 4.74 µM (active)
[2]
  CC50: 5.78 µM (active)
[3]
  EC50: 5.27 µM (active)
[4]
  EC50: > 120 µM (not active)
[5]
  CC50: 6.08 µM (active)
[6]
  IC50: > 80 µM (inactive)
[7]
  IC50: 1.99 µM (active)
[8]
  EC50: 0.514 µM (active)
Streptococcus
  EC50: 8.91 µM (active)
Streptokinase A
  EC50: > 150 µM (not active)
[9]
  EC50: 2.34 µM (active)
Protein RecA
  EC50: 2.02 µM (active)
[10]
  EC50: > 120 µM (not active)
[11]
  EC50: 2.23 µM (active)
[12]
  EC50: 0.884 µM (active)
[13]
  EC50: 8.35 µM (active)

## CC(C)C(NC(=O)CN1C(=O)c2ccccc2S1(=O)=O)C(C)C
[14]
  IC50: > 100 µM (inactive)
[15]
  IC50: > 100 µM (not active)

## Cc1cc(C)cc(OCC(=O)NNC(=O)c2cc(C)n[nH]2)c1
[16]
  EC50: > 100 µM (inactive)
[17]
  IC50: > 100 µM (inactive)
[18]
  EC50: 16.1 µM (active)
[19]
  EC50: 12.7 µM (active)

## Cc1cc2n(n1)C(c1ccc(N(C)C)cc1)Nc1ccccc1-2 (stereo not given)
[20]
  IC50: 48.3 µM (active)
[21]
  IC50: > 100 µM (inactive)

## COCc1c(C(=O)Nc2cccc(S(=O)(=O)N3CCCCC3)c2)oc2ccccc12
[22]
  AC50: 26.4 µM (active)
Integrin alpha-L
  EC50: 24.7 µM (inactive)
[23]
  AC50: 9.63 µM (active)
T-cell
  EC50: 50.8 µM (inactive)

## CCN1C(c2ccccc2)=C(c2ccccc2)S/C1=C\C=C1/SC(=S)N(C)C1=O
[24]
  EC50: 7.44 µM (active)
